Assays:
Homo sapiens [1] = species: Homo sapiens; experiment: Pharmacokinetic parameter in TB patient serum assessed as percentage of time the compound persisted above 5 mg/L at 500 mg/ kg TID; type: ADME, organism-based; set-up: dose 500 mg/ kg; details: in vivo
Homo sapiens [2] = experiment: Hepatotoxicity in TB patients assessed as elevated aspartate aminotransferase level at 60 g/kg; type: toxicity, organism-based; details: in vivo, 60000 mg/kg
[3] = AUC (0 to 168 hrs) in serum of TB patient at 1500 mg/kg daily; type: ADME, organism-based; set-up: time < 168 hr, dose 1500 mg/kg; details: human
[4] = Systemic clearance in TB patient serum at 3000 mg/kg administered alternate day; type: ADME, organism-based; set-up: dose 3000 mg/kg; details: human
Homo sapiens [5] = experiment: Hepatotoxicity in TB patients assessed as elevated aspartate aminotransferase level at 30 g/kg; type: toxicity, organism-based; details: in vivo, 30000 mg/kg
Homo sapiens [6] = experiment: Hepatotoxicity in TB patients assessed as abnormal flocculation at 3.7 g/kg/day measured after 87 days; type: toxicity, organism-based; details: in vivo, 3700 mg/kg, 2088 h
Homo sapiens [7] = experiment: Hepatotoxicity in TB patients assessed as elevated aspartate aminotransferase level at 40 g/kg; type: toxicity, organism-based; details: in vivo, 40000 mg/kg
Homo sapiens [8] = experiment: Pharmacokinetic parameter in TB patient serum assessed as percentage of time the compound persisted above 20 mg/L at 1500 mg/kg daily; type: ADME, organism-based; set-up: dose 1500 mg/kg; details: in vivo
Homo sapiens [9] = experiment: Pharmacokinetic parameter in TB patient serum assessed as percentage of time the compound persisted above 10 mg/L at 3000 mg/kg administered alternate day; type: ADME, organism-based; set-up: dose 3000 mg/kg; details: in vivo
Homo sapiens [10] = species: Homo sapiens; experiment: Pharmacokinetic parameter in TB patient serum assessed as percentage of time the compound persisted above 20 mg/L at 500 mg/ kg TID; type: ADME, organism-based; set-up: dose 500 mg/ kg; details: in vivo
[11] = Systemic clearance in TB patient serum at 1500 mg/kg daily; type: ADME, organism-based; set-up: dose 1500 mg/kg; details: human
Homo sapiens [12] = experiment: Hepatotoxicity in TB patients assessed as abnormal flocculation at 3.7 g/kg/day measured after 52 days; type: toxicity, organism-based; details: in vivo, 3700 mg/kg, 1248 h
[13] = Cmax in TB patient serum at 500 mg/kg TID; type: ADME, organism-based; set-up: dose 500 mg/kg; details: human
Homo sapiens [14] = experiment: Pharmacokinetic parameter in TB patient serum assessed as percentage of time the compound persisted above 20 mg/L at 3000 mg/kg administered alternate day; type: ADME, organism-based; set-up: dose 3000 mg/kg; details: in vivo
Homo sapiens [15] = experiment: Hepatotoxicity in TB patients assessed as jaundice at 3.7 g/kg/day measured after 87 days; type: toxicity, organism-based; details: in vivo, 3700 mg/kg, 2088 h
Homo sapiens [16] = species: Homo sapiens; experiment: Toxicity in TB patients assessed as arthralgia; type: organism-based; details: in vivo
[17] = AUC (0 to 168 hrs) in TB patient serum at 500 mg/ kg TID; type: ADME, organism-based; set-up: time < 168 hr, dose 500 mg/ kg; details: human
Homo sapiens [18] = species: Homo sapiens; experiment: Pharmacokinetic parameter in TB patient serum assessed as percentage of time the compound persisted above 10 mg/L at 500 mg/ kg TID; type: ADME, organism-based; set-up: dose 500 mg/ kg; details: in vivo
Homo sapiens [19] = experiment: Pharmacokinetic parameter in TB patient serum assessed as percentage of time the compound persisted above 5 mg/L at 1500 mg/kg daily; type: ADME, organism-based; set-up: dose 1500 mg/kg; details: in vivo
Homo sapiens [20] = experiment: Pharmacokinetic parameter in TB patient serum assessed as percentage of time the compound persisted above 5 mg/L at 3000 mg/kg administered alternate day; type: ADME, organism-based; set-up: dose 3000 mg/kg; details: in vivo
Homo sapiens [21] = experiment: Pharmacokinetic parameter in TB patient serum assessed as percentage of time the compound persisted above 10 mg/L at 1500 mg/kg daily; type: ADME, organism-based; set-up: dose 1500 mg/kg; details: in vivo
Homo sapiens [22] = experiment: Hepatotoxicity in TB patients assessed as jaundice at 3.7 g/kg/day measured after 52 days; type: toxicity, organism-based; details: in vivo, 3700 mg/kg, 1248 h
[23] = AUC (0 to 168 hrs) in serum of TB patient at 3000 mg/kg administered alternate day; type: ADME, organism-based; set-up: time < 168 hr, dose 3000 mg/kg; details: human
[24] = Systemic clearance in TB patient serum at 500 mg/ kg TID; type: ADME, organism-based; set-up: dose 500 mg/ kg; details: human
Homo sapiens [25] = species: Homo sapiens; experiment: Toxicity in TB patients assessed as death; type: organism-based; details: in vivo
[26] = Cmax in TB patient serum at 3000 mg/kg administered alternate day; type: ADME, organism-based; set-up: dose 3000 mg/kg; details: human
[27] = Cmax in TB patient serum at 1500 mg/kg daily; type: ADME, organism-based; set-up: dose 1500 mg/kg; details: human

## NC(=O)c1cnccn1 [PYRAZINAMIDE]
Homo sapiens [1]
  Activity: 92%
Homo sapiens [2]
  Activity: Non-toxic
[3]
  AUC at 168 h: 2270 µg·h/mL
[4]
  clearance: 69.3 mL/min
Homo sapiens [5]
  Activity: Non-toxic
Homo sapiens [6]
  Activity: Non-toxic
Homo sapiens [7]
  Activity: Non-toxic
Homo sapiens [8]
  Activity: 24%
Homo sapiens [9]
  Activity: 35%
Homo sapiens [10]
  Activity: 9%
[11]
  clearance: 66.2 mL/min
Homo sapiens [12]
  Activity: Non-toxic
[13]
  Cmax: 20200 ng/mL
Homo sapiens [14]
  Activity: 23%
Homo sapiens [15]
  Activity: Non-toxic
Homo sapiens [16]
  Activity: Toxic
[17]
  AUC at 168 h: 2190 µg·h/mL
Homo sapiens [18]
  Activity: 67%
Homo sapiens [19]
  Activity: 74%
Homo sapiens [20]
  Activity: 48%
Homo sapiens [21]
  Activity: 49%
Homo sapiens [22]
  Activity: Non-toxic
[23]
  AUC(0-t) at 168 h: 2160 µg·h/mL
[24]
  clearance: 68.5 mL/min
Homo sapiens [25]
  Activity: Toxic
[26]
  Cmax: 67500 ng/mL
[27]
  Cmax: 33800 ng/mL

— ChEMBL document CHEMBL1275245, “Clinical and toxicodynamic evidence that high-dose pyrazinamide is not more hepatotoxic than the low doses currently used” (Antimicrob Agents Chemother, 2010)
